Source: PubChem BioAssay (NCI)
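All cell lines were grown in 96-well plates and treated with compound for 48 hours. GI50: concentration for 50% inhibition of growth. TGI: total growth inhibition.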

Columns and labels:
Experiment in all cases: growth of human tumour cells (NCI), 48 h
CAKI-1 renal = system: CAKI-1 renal
786-0 renal = system: 786-0 renal
K-562 leukemia = system: K-562 leukemia
UO-31 renal = system: UO-31 renal
DU-145 prostate = system: DU-145 prostate
UACC-62 melanoma = system: UACC-62 melanoma
RPMI-8226 leukemia = system: RPMI-8226 leukemia
MDA-MB-435 = system: MDA-MB-435
M14 melanoma = system: M14 melanoma
SW-620 colon = system: SW-620 colon
HCT-116 colon = system: HCT-116 colon
SR leukemia = system: SR leukemia
OVCAR-8 ovarian = system: OVCAR-8 ovarian
HOP-92 NSCLC = system: HOP-92 NSCLC
CCRF-CEM leukemia = system: CCRF-CEM leukemia
A498 renal = system: A498 renal
OVCAR-4 ovarian = system: OVCAR-4 ovarian
NCI-H460 lung = system: NCI-H460 lung
OVCAR-3 ovarian = system: OVCAR-3 ovarian
SK-OV-3 ovarian = system: SK-OV-3 ovarian
SNB-75 CNS = system: SNB-75 CNS
SF-539 CNS = system: SF-539 CNS
SK-MEL-2 melanoma = system: SK-MEL-2 melanoma
SF-268 CNS = system: SF-268 CNS
HS 578T breast = system: HS 578T breast
RXF 393 renal = system: RXF 393 renal
NCI-H522 lung = system: NCI-H522 lung
ACHN renal = system: ACHN renal
TK-10 renal = system: TK-10 renal
SN12C renal = system: SN12C renal
EKVX NSCLC = system: EKVX NSCLC
KM12 colon = system: KM12 colon
NCI-H23 lung = system: NCI-H23 lung
OVCAR-5 ovarian = system: OVCAR-5 ovarian
PC-3 prostate = system: PC-3 prostate
NCI/ADR-RES ovarian = system: NCI/ADR-RES ovarian
SK-MEL-28 melanoma = system: SK-MEL-28 melanoma
COLO 205 colon = system: COLO 205 colon
HOP-62 NSCLC = system: HOP-62 NSCLC
LOX IMVI melanoma = system: LOX IMVI melanoma
BT-549 breast = system: BT-549 breast
SK-MEL-5 melanoma = system: SK-MEL-5 melanoma
MDA-MB-231 breast = system: MDA-MB-231 breast
MOLT-4 leukemia = system: MOLT-4 leukemia
UACC-257 melanoma = system: UACC-257 melanoma
MCF7 breast = system: MCF7 breast
HT29 colon = system: HT29 colon
HCT-15 colon = system: HCT-15 colon
HL-60(TB) leukemia = system: HL-60(TB) leukemia
U251 CNS = system: U251 CNS
T-47D breast = system: T-47D breast
SNB-19 CNS = system: SNB-19 CNS
SF-295 CNS = system: SF-295 CNS
MALME-3M melanoma = system: MALME-3M melanoma
A549 NSCLC = system: A549 NSCLC
IGROV1 ovarian = system: IGROV1 ovarian
NCI-H226 lung = system: NCI-H226 lung
HCC-2998 colon = system: HCC-2998 colon

## CN(C)c1ccc(-c2ccc(-c3ccc(C(=N)N)c(F)c3)s2)cc1
CAKI-1 renal
  GI50: 1.59 µM
  TGI: 3.11 µM
786-0 renal
  GI50: 1.87 µM
  TGI: 3.49 µM
K-562 leukemia
  GI50: 0.258 µM
  TGI: 0.699 µM
UO-31 renal
  GI50: 1.54 µM
  TGI: 3.05 µM
DU-145 prostate
  GI50: 1.65 µM
  TGI: 3.18 µM
UACC-62 melanoma
  GI50: 1.83 µM
  TGI: 3.66 µM
RPMI-8226 leukemia
  GI50: 1.91 µM
  TGI: 4.48 µM
MDA-MB-435
  GI50: 1.65 µM
  TGI: 3.17 µM
M14 melanoma
  GI50: 1.74 µM
  TGI: 3.39 µM
SW-620 colon
  GI50: 1.48 µM
  TGI: 3.07 µM
HCT-116 colon
  GI50: 1.17 µM
  TGI: 2.6 µM
SR leukemia
  GI50: 0.244 µM
  TGI: 0.692 µM
OVCAR-8 ovarian
  GI50: 2.23 µM
  TGI: 5.38 µM
HOP-92 NSCLC
  GI50: 1.4 µM
  TGI: 3.03 µM
CCRF-CEM leukemia
  GI50: 0.329 µM
  TGI: 1.26 µM
A498 renal
  GI50: 0.0149 µM
  TGI: 1.15 µM
OVCAR-4 ovarian
  GI50: 1.87 µM
  TGI: 3.5 µM
NCI-H460 lung
  GI50: 1.77 µM
  TGI: 3.37 µM
OVCAR-3 ovarian
  GI50: 1.94 µM
  TGI: 3.59 µM

## Cc1ccc(S(=O)(=O)OC[C@]23CCC(C)(C)C[C@H]2C2=CC[C@@H]4[C@@]5(C)CCCNC(C)(C)[C@@H]5CC[C@@]4(C)[C@]2(C)CC3)cc1
CAKI-1 renal
  GI50: 1.45 µM
  TGI: 2.82 µM
SK-OV-3 ovarian
  GI50: 1.76 µM
  TGI: 3.26 µM
UO-31 renal
  GI50: 1.29 µM
  TGI: 2.68 µM
DU-145 prostate
  GI50: 1.79 µM
  TGI: 3.37 µM
SNB-75 CNS
  GI50: 1.48 µM
  TGI: 2.94 µM
SF-539 CNS
  GI50: 1.71 µM
  TGI: 3.15 µM
SK-MEL-2 melanoma
  GI50: 2.19 µM
  TGI: 4.83 µM
SF-268 CNS
  GI50: 2.32 µM
  TGI: 8.44 µM
HS 578T breast
  GI50: 1.82 µM
  TGI: 4.08 µM
RXF 393 renal
  GI50: 1.38 µM
  TGI: 2.78 µM
A498 renal
  GI50: 5.99 µM
  TGI: 21.4 µM
NCI-H522 lung
  GI50: 1.69 µM
  TGI: 3.38 µM
ACHN renal
  GI50: 1.69 µM
  TGI: 3.07 µM
TK-10 renal
  GI50: 1.77 µM
  TGI: 3.33 µM

## NC(=O)c1ncn(CC2(CO)CCC2)c1N
SNB-75 CNS
  GI50: 10.8 µM

## O=C1NCN(c2ccccc2)C12CCN(CCc1ccc3[nH]c(=S)[nH]c3c1)CC2
CAKI-1 renal
  TGI: > 100 µM
786-0 renal
  TGI: > 100 µM
SK-OV-3 ovarian
  TGI: > 100 µM
SN12C renal
  TGI: > 100 µM
EKVX NSCLC
  TGI: > 100 µM
KM12 colon
  TGI: > 100 µM
NCI-H23 lung
  TGI: > 100 µM
OVCAR-5 ovarian
  TGI: > 100 µM
DU-145 prostate
  TGI: > 100 µM
UACC-62 melanoma
  TGI: > 100 µM
PC-3 prostate
  TGI: 75.1 µM
RPMI-8226 leukemia
  TGI: 59.3 µM
MDA-MB-435
  TGI: 35.6 µM
SF-539 CNS
  TGI: 58.4 µM
NCI/ADR-RES ovarian
  TGI: > 100 µM
SK-MEL-28 melanoma
  TGI: 20.3 µM
COLO 205 colon
  TGI: 30.7 µM
HOP-62 NSCLC
  TGI: > 100 µM
SK-MEL-2 melanoma
  TGI: 41 µM
M14 melanoma
  TGI: 58.3 µM
LOX IMVI melanoma
  TGI: 36.8 µM
BT-549 breast
  TGI: > 100 µM
SK-MEL-5 melanoma
  TGI: 31.7 µM
SW-620 colon
  TGI: 25.8 µM
HCT-116 colon
  TGI: > 100 µM
SF-268 CNS
  TGI: > 100 µM
MDA-MB-231 breast
  TGI: 41.6 µM
HS 578T breast
  TGI: > 100 µM
MOLT-4 leukemia
  TGI: > 100 µM
UACC-257 melanoma
  TGI: 15.6 µM
OVCAR-8 ovarian
  TGI: > 100 µM
MCF7 breast
  TGI: 92.8 µM
HT29 colon
  TGI: > 100 µM
HCT-15 colon
  TGI: > 100 µM
HL-60(TB) leukemia
  TGI: > 100 µM
HOP-92 NSCLC
  TGI: 93.7 µM
RXF 393 renal
  TGI: 36.5 µM
U251 CNS
  TGI: 98.4 µM
CCRF-CEM leukemia
  TGI: 22 µM
A498 renal
  TGI: > 100 µM
T-47D breast
  TGI: 56.8 µM
NCI-H522 lung
  TGI: > 100 µM
SNB-19 CNS
  TGI: > 100 µM
OVCAR-4 ovarian
  TGI: > 100 µM
NCI-H460 lung
  TGI: > 100 µM
SF-295 CNS
  TGI: > 100 µM
MALME-3M melanoma
  TGI: 30.8 µM
A549 NSCLC
  TGI: > 100 µM
OVCAR-3 ovarian
  TGI: > 100 µM
IGROV1 ovarian
  TGI: > 100 µM
ACHN renal
  TGI: > 100 µM
TK-10 renal
  TGI: 92.9 µM

## Cc1ccc(N/C(Sc2ccccc2)=C(/C(Cl)=C(Cl)Cl)[N+](=O)[O-])c(C)c1
NCI-H226 lung
  TGI: 55.4 µM
CAKI-1 renal
  TGI: 30.7 µM
786-0 renal
  TGI: 39.1 µM
SK-OV-3 ovarian
  TGI: 99.2 µM
K-562 leukemia
  TGI: 45.8 µM
SN12C renal
  TGI: 43.1 µM
EKVX NSCLC
  TGI: 65.1 µM
KM12 colon
  TGI: 32.2 µM
NCI-H23 lung
  TGI: 68.7 µM
OVCAR-5 ovarian
  TGI: 23 µM
DU-145 prostate
  TGI: > 87.1 µM
UACC-62 melanoma
  TGI: 62.2 µM
PC-3 prostate
  TGI: 36.1 µM
RPMI-8226 leukemia
  TGI: 64.8 µM
MDA-MB-435
  TGI: 27.7 µM
SF-539 CNS
  TGI: 45.4 µM
NCI/ADR-RES ovarian
  TGI: 70.4 µM
SK-MEL-28 melanoma
  TGI: 41.2 µM
COLO 205 colon
  TGI: 35.3 µM
HOP-62 NSCLC
  TGI: 59.7 µM
SK-MEL-2 melanoma
  TGI: 36.9 µM
M14 melanoma
  TGI: 59.7 µM
LOX IMVI melanoma
  TGI: 28.2 µM
BT-549 breast
  TGI: 29.1 µM
SK-MEL-5 melanoma
  TGI: 81.7 µM
SW-620 colon
  TGI: 36.7 µM
HCT-116 colon
  TGI: 30.8 µM
SF-268 CNS
  TGI: 29.5 µM
MDA-MB-231 breast
  TGI: 33.2 µM
HS 578T breast
  TGI: > 100 µM
SR leukemia
  TGI: > 100 µM
MOLT-4 leukemia
  TGI: > 100 µM
UACC-257 melanoma
  TGI: 38.2 µM
HCC-2998 colon
  TGI: 36 µM
OVCAR-8 ovarian
  TGI: > 100 µM
MCF7 breast
  TGI: 28 µM
HT29 colon
  TGI: 35.6 µM
HCT-15 colon
  TGI: 32.3 µM
HL-60(TB) leukemia
  TGI: 56.2 µM
HOP-92 NSCLC
  TGI: 45.8 µM
U251 CNS
  TGI: 26.7 µM
CCRF-CEM leukemia
  TGI: 76.1 µM
A498 renal
  TGI: 53.4 µM
NCI-H522 lung
  TGI: 42.9 µM
SNB-19 CNS
  TGI: 54 µM
OVCAR-4 ovarian
  TGI: > 100 µM
NCI-H460 lung
  TGI: 32.7 µM
SF-295 CNS
  TGI: 47 µM
MALME-3M melanoma
  TGI: 34 µM
A549 NSCLC
  TGI: > 81.5 µM
IGROV1 ovarian
  TGI: 40.2 µM
ACHN renal
  TGI: > 100 µM
TK-10 renal
  TGI: > 100 µM
